The values below come from patent US7276511B2, “Benzylamine derivative” (Zeria Pharmaceutical Co., Ltd., priority 2003, dated 2007).

Counter-ions that a name gives are not always drawn.

For one experiment, the target named is T1, NK-2 receptor (Homo sapiens, UniProt P21452).
T1 sequence (P21452 1-398): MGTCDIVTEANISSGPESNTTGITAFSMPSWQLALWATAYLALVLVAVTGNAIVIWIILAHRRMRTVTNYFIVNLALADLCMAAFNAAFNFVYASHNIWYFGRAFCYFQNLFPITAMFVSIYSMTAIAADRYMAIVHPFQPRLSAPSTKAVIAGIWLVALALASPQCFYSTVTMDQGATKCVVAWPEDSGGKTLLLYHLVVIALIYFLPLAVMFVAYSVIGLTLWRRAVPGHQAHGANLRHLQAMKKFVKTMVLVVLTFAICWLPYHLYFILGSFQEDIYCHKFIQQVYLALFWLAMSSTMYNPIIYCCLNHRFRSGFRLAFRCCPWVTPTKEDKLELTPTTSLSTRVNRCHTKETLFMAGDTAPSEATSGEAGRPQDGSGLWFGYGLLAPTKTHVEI
The settings on record: in vitro for (B); known from Patent Documents 2 and 4; cited from earlier work.

Experiment [1] concerns the target T2, NK-1 receptor (Homo sapiens, UniProt P25103). The note with it: known from Patent Document 4; cited from earlier work.
Target sequence in this assay (P25103 whole entry, species assumed): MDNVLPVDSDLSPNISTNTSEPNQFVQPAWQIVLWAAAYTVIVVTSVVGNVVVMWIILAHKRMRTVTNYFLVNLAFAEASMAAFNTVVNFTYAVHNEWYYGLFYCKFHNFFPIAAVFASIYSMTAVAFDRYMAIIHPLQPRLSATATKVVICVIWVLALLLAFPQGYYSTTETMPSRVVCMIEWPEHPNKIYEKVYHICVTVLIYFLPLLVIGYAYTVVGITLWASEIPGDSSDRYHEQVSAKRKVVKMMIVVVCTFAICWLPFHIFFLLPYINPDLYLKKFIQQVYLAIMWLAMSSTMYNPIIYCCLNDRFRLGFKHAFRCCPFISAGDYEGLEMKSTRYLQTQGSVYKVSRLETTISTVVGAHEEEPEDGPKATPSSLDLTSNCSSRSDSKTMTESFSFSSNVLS
The target of experiment [2] is T3, Cloned Neurokinin Receptor Subtype 2 Human (Homo sapiens, UniProt P21452).
T3 construct: purchased Biosignal Packard; host or cells: CHO cells
T3 sequence (P21452 1-398): T1 sequence (P21452 1-398)
Briefly: NK-2 receptor-binding experiment ([3H]-SR48968, CHO cell membranes). The settings on record: Table 4; inhibition of [3H]-SR48968 (0.85 nM) binding, pseudo-Hill analysis. The gist of the method: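 Membranes from CHO cells expressing cloned human NK-2 receptor incubated with [3H]-SR48968 (final 0.85 nM) and test compound in 20 mM HEPES, 50 min at 27° C. Bound radioactivity collected by filtration and counted by scintillation; IC50 from pseudo-Hill analysis of percent binding inhibition, nonspecific binding subtracted.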

Experiment [3] addresses T2, NK-1 receptor. Briefly: NK-1 receptor-binding test ([3H]-Substance P, hNK1-CHO cells). More on the design: expressed in transfected cells; host or cells: CHO-K1 cells (ATCC: CCL-61), G418-resistant, hNK1-CHO. The note with it: Table 4; inhibition of [3H]-Substance P (0.5 nM) binding to hNK1-CHO cells, pseudo-Hill analysis; read-out: NK-1. As for the experimental part: 1. NK-1 Receptor-binding Test
1) Preparation of Human NK-1 Receptor Expression Cells
FuGene 6 transfection reagent (Boegringer Mannheim) (3 μL) was diluted in an F-12 culture broth (97 μL), and pCR3.1 plasmid to which human NK-1 receptor cDNA had been introduced (Invitrogen) (10 μL) was added thereto. The mixture was mixed and incubated for 15 minutes (transfection reagent). CHO-K1 cells (ATCC: CCL-61) were cultured for 24 hours, and the whole reagent prepared above was added to the cultured CHO-K1 cells ([…]). Subsequently, culture was performed in the presence of G418 (Stratagene), and the resistant cells were employed as cells into which human NK-1 receptor gene was introduced (hNK1-CHO).
2) Subcultivation of hNK1-CHO Cells
The hNK1-CHO cells were treated with trypsin-EDTA and subcultivated in an F-12 culture broth (containing 10% fetal bovine serum, 10 mM HEPES, 100 U/mL, penicillin, 100 μg/mL streptmycin, 400 μg/mL G418) in a 75-cm^2 flask (FALCON). Cells to be employed in the receptor-binding experiment were added to a 24-well plate (IWAKI) at 1×10^5 cells/well, and subcultured for 48 hours at 37° C. under 95% […] and 5% CO2.
3) Receptor-binding Experiment
When the hNK1-CHO cells became subconfluent on the 24-well plate, an F-12 culture broth (containing 10 mM HEPES and 0.1% fetal bovine serum) (450 μL), [^3H]-Substance P (Amersham, final concentration 0.5 nM), and a test compound were added to the cells, and the mixture was incubated for 40 minutes at 37° C. For the measurement of non-specific binding, L703606 (Sigma) was added instead of the test compound. After completion of incubation, the mixture was washed with ice-cooled phosphate buffered saline containing 0.1% fetal bovine serum, and the cells were lysed with 1N NaOH (0.5 mL). The lysate was transfered to a plastic vial containing UltimaGold MV (5 mL), and the radioactivity was determined by means of a liquid liquid scintillation counter (Packard, 2000CA).
Percent radioactive ligand-receptor binding inhibition of each test compound was calculated by use of the following equation, and IC50 (nM) was determined through pseudo-Hill analysis.
Percent inhibition (%)=[1−(C−A)/(B−A)]×100
A: Radioactivity attributed to non-specific binding
B: Radioactivity without test compound
C: Radioactivity with test compound
Target sequence in this assay (P25103 whole entry): as the sequence (P25103 whole entry, species assumed) above

Take `COc1cc(C(=O)N2CCO[C@](CCN3CCCC4(C3)c3ccccc3C[S+]4[O-])(c3ccc(Cl)c(Cl)c3)C2)cc(OC)c1OC` (some centres unmarked) [(D)]: on NK-2 receptor, the “antagonistic activity against NK-2 receptor” value is given as “excellent antagonistic activity”. Moreover, the “antagonistic activity against NK-1 receptor” value at NK-1 receptor [1] is “excellent antagonistic activity”. With `CCC(=O)N(C)CC(CCN1CCC2(CC1)c1ccccc1C[S+]2[O-])(c1ccc(Cl)c(Cl)c1)N(C)C(=O)CC(c1ccccc1)c1ccccc1` [Compound No. 5, N-{2-(3,4-dichlorophenyl)-2-[(3,3-diphenylpropionyl)-methylamino]-4-{spiro[benzo(c)thiophene-1(3H),4′-piperidine]-(2S)-oxide}-1′-yl-butyl}-N-methyl-propionamide hydrochloride], the values for the IC50 (in experiment [2]; on NK-1 receptor [3]) were 1.9 nM and 6.3 nM, respectively. As to `CC(=O)NC1(c2ccccc2)CCN(CCC(CN(C)C(=O)C(F)F)(c2ccc(Cl)c(Cl)c2)N(C)C(=O)NC(c2ccccc2)c2ccccc2)CC1` (centres unmarked) [Compound No. 12, N-[4-(4-Acetylamino-4-phenyl-piperidine-1′-yl)-2-(3-benzhydryl-1-methyl-ureido)-2-(3,4-dichlorophenyl)-butyl]-2,2-difluoro-N-methyl-acetamide hydrochloride], the IC50 in experiment [2] was found to be 6.1 nM; on NK-1 receptor [3], 11 nM.

In the case of `CN(C[C@](CCN1CCC2(CC1)c1ccccc1C[S@+]2[O-])(c1ccc(Cl)c(Cl)c1)N(C)C(=O)C(c1ccccc1)c1ccccc1)C(=O)CC(F)(F)F` [Compound No. 42, N-{2-(S)-(N-methyl-2,2-diphenylacetamide)-2-(3,4-dichlorophenyl)-4-[spiro(benzo(c)thiophene-(2S)-oxido-1(3H),4′-piperidin)-1′-yl]butyl}-3,3,3-trifluoro-N-methylpropanamido hydrochloride], the IC50 in experiment [2] is 4 nM; at NK-1 receptor [3] it was 2.1 nM. Take `CN(C[C@](CCN1CCC2(CC1)NC(=O)Cc1ccccc12)(c1ccc(Cl)c(Cl)c1)N(C)C(=O)C(c1ccccc1)c1ccccc1)C(=O)CC(F)(F)F` [Compound No. 43, N-{2-(S)-(N-methyl-2,2-diphenylacetamide)-2-(3,4-dichlorophenyl)-4-[3-oxo-3,4-dihydro-2H-spiro(isoquinoline-1,4′-piperidin)-1′-yl]butyl}-3,3,3-trifluoro-N-methylpropanamido hydrochloride]: the IC50 in experiment [2] stood at 2.1 nM; on NK-1 receptor [3], 7.7 nM. `CC(C)C(=O)N(C)C[C@](CCN1CCC2(CC1)NC(=O)Cc1ccccc12)(c1ccc(Cl)c(Cl)c1)N(C)C(=O)NC(c1ccccc1)c1ccccc1` [Compound No. 44, 1-{1-(N-methyl-isobutylamide)-2-(S)-(3,4-dichlorophenyl)-4-[3-oxo-3,4-dihydro-2H-spiro(isoquinoline-1,4′-piperidin)-1′-yl]butan-2-yl}-3-benzhydryl-1-methylureahydrochloride]: the figures for the IC50 (in experiment [2]; on NK-1 receptor [3]) were 2.4 nM and 11 nM, respectively. On to `CC(C)C(=O)N(C)C[C@](CCN1CCC2(CC1)c1ccccc1C[S@+]2[O-])(c1ccc(Cl)c(Cl)c1)N(C)C(=O)CC(c1ccccc1)c1ccccc1` [Compound No. 45, N-{2-(S)-(N-methyl-3,3-diphenylpropanamido)-2-(3,4-dichlorophenyl)-4-[spiro(benzo(c)thiophene-(2S)-oxido-1(3H),4′-piperidin)-1′-yl]butyl}-N-methyl-isobutylamide hydrobromide], for which the values for the IC50 (in experiment [2]; on NK-1 receptor [3]) were 2.8 nM and 4.9 nM, respectively.

`CN(C[C@](CCN1CCC2(CC1)NC(=O)Cc1ccccc12)(c1ccc(Cl)c(Cl)c1)N(C)C(=O)NC(c1ccccc1)c1ccccc1)C(=O)C(F)(F)F` [Compound No. 46, 1-{1-(2,2,2-trifluoro-N-methylacetamide)-2-(S)-(3,4-dichlorophenyl)-4-[3-oxo-3,4-dihydro-2H-spiro(isoquinoline-1,4′-piperidin)-1′-yl]butan-2-yl}-3-benzhydryl-1-methylurea sulfate]: the IC50 in experiment [2] worked out at 1.8 nM; at NK-1 receptor [3] it was 10.1 nM.

`CN(C[C@@H](CCN1CCC2(CCc3ccccc32)CC1)c1ccc(Cl)c(Cl)c1)C(=O)c1ccccc1` [compound (B), reference compound]: the “antagonistic activity against NK-2 receptor” value on NK-2 receptor is “exhibits antagonistic activity only to NK-2 receptor”.
